Experimental findings from US20100123097A1, “Method for Making Carbonates and Esters” (SABIC […] IP BV, priority 2008, published 2010) are described below.

The conditions of the series: after >20 h storage time in the solvents of the table. The method, then:
Suitable reaction temperatures will typically be high enough to keep the solution or melt in the liquid form and not high enough to cause loss of the species 1, 2, 3, or 5 in FIGS. 1 and 2. The reaction temperature is less than 180° C., 160° C., 140° C. […] Higher reaction temperatures may be appropriate when more sterically hindered alcohols are used as reactants if longer reaction times are not acceptable.

For the compound `COC(=O)c1ccccc1OC(=O)Oc1ccccc1C(=O)OC` [BMSC, bismethyl salicyl carbonate], the “Stability in these solvents (MS formation)” value is “no detectable MS formation”.
